Values quoted from earlier work as cited in paper PMC8739290, “A phase 1b study of erlotinib and momelotinib for the treatment of EGFR-mutated, tyrosine kinase inhibitor-naive metastatic non-small cell lung cancer” (Cancer Chemotherapy and Pharmacology, 2021).

What was measured:
EGFR-mutated NSCLC lines = tested on: EGFR-mutated NSCLC lines; design: method as in PMID 18060032; settings: multiple EGFR-mutated NSCLC lines; cited from earlier work
HCC827 xenograft model = tested on: HCC827 xenograft model; design: method as in doi:10.1158/1538-7445.AM2018-2938; settings: cited from earlier work
[1] = tested on: PC-9 xenograft tumors and EGFR-mutant transgenic mice; design: method as in PMID 24238495; settings: cited from earlier work

For CC(C)(C)c1nc2c3ccc(F)cc3c3c(=O)[nH]ccc3c2[nH]1 [P6], which “effect on cell cycle” value (EGFR-mutated NSCLC lines) is on record?
The value was “cell-cycle arrest at the G2/M phase”.

What about the “effect on colony formation” value (EGFR-mutated NSCLC lines) of the same compound?
Its value is “suppressed colony formation”.

And the “effect on phosphorylated-STAT3 (pSTAT3)” value (EGFR-mutated NSCLC lines)?
The value was “uniformly abrogated pSTAT3”.

Which results are given for N#CCC1(n2cc(-c3ncnc4[nH]ccc34)cn2)CN(C2CCN(C(=O)c3ccnc(C(F)(F)F)c3F)CC2)C1 [itacitinib]?
single-agent activity (HCC827 xenograft model; HCC827 xenograft model): independent activity; tumor growth inhibition in combination (HCC827 xenograft model; itacitinib in combination with erlotinib or osimertinib): synergistic tumor growth inhibition

For Cc1cc(Nc2nc(N[C@@H](C)c3ncc(F)cn3)ncc2Cl)n[nH]1 [AZD1480], which single-agent activity ([1]; PC-9 xenograft tumors and EGFR-mutant transgenic mice) is on record?
The single-agent activity was “independent activity”.

And the “number of lung tumors” value [1]?
Its value is “decreased number of lung tumors”.

And the overall survival [1]?
The overall survival was “improved overall survival”.
